Test results from article PMC8286842, “The structures of E. coli NfsA bound to the antibiotic nitrofurantoin; to 1,4-benzoquinone and to FMN” (Biochemical Journal, 2021).
pKi: −log10 of the molar value.

Molecular target: T1, NfsA (Escherichia coli, UniProt P17117)
T1 construct: untagged, dimer
T1 sequence (P17117 1-240): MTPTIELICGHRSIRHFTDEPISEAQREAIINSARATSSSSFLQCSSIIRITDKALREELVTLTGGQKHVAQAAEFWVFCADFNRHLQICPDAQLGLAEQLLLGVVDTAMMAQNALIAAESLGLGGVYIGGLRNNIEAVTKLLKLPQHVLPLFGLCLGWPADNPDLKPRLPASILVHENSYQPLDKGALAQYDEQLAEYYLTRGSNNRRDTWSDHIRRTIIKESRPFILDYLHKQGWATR
Assay: X-ray crystal structure at […] Å with a second FMN as ligand; steady-state inhibition kinetics
Format: biochemical

Cc1cc2nc3c(=O)[nH]c(=O)nc-3n(C[C@H](O)[C@H](O)[C@H](O)COP(=O)(O)O)c2cc1C [FMN]
pKi: ~5.10
